Earlier results, collected in patent publication US6849628B2, “Optically active compounds” (The University of Strathclyde, priority 1986, dated 2005).
Values belong to the compound of their own block, whether it stands above or below them.

Legend:
[1] = target: 5,10-methylene tetrahydrofolate dehydrogenase from E. coli (Escherichia coli, UniProt P24186); details: Scott and Donaldson 1964
[2] = target: T1, thymidylate synthase from L. casei (Lacticaseibacillus casei, UniProt P00469); details: Leary et al 1973
T1 sequence (P00469 1-316): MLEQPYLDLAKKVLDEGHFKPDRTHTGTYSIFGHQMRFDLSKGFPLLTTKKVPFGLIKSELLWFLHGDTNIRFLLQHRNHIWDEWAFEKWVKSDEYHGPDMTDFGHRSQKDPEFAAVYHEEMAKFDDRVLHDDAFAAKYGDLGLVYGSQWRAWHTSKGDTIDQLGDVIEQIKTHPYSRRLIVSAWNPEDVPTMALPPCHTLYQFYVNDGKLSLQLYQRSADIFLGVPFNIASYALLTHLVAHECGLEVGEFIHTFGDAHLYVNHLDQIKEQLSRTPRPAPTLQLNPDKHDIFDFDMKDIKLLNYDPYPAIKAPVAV

[3] = target: T2, glycinamide ribonucleotide (GAR) formyl-transferase from chicken liver (Gallus gallus, UniProt P21872); details: Smith, Benkovic and Benkovic 1981
T2 construct: host or cells: chicken liver
T2 sequence (P21872 1-1003): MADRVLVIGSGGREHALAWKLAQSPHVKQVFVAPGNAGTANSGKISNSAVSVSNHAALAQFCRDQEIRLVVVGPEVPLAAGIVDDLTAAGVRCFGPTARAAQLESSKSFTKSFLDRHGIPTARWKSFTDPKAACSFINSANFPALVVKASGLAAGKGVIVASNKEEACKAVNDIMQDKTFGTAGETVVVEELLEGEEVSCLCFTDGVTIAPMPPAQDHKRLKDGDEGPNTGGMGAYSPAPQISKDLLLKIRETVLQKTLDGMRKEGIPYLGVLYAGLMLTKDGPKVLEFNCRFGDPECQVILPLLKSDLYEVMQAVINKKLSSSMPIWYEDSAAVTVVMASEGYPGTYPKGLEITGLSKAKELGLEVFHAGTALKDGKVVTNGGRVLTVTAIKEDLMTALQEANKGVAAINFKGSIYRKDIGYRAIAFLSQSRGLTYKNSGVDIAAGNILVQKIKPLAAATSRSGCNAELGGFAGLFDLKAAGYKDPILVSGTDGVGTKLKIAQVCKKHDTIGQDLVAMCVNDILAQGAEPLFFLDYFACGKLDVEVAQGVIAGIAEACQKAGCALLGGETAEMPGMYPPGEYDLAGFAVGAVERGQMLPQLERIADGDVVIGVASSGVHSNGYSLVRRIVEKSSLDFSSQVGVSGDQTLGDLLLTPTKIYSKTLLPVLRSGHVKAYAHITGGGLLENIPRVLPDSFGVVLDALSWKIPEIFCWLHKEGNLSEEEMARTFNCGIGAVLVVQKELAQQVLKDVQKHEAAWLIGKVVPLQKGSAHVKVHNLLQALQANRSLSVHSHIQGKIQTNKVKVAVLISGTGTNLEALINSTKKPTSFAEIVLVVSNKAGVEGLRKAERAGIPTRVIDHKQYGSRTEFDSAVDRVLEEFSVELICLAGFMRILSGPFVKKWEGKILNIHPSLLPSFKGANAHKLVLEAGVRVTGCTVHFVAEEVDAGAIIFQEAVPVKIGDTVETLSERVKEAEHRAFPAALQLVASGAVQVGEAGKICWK

[4] = system: one-carbon metabolism; details: Montgomery et al 1981; only the (6S) diastereoisomer is effective

Compound: Nc1nc2c(c(=O)[nH]1)N1CN(c3ccc(C(=O)N[C@@H](CCC(=O)O)C(=O)O)cc3)CC1CN2 (single isomer, unassigned) [non-natural diastereoisomer of 5,10-methylene tetrahydrofolate, 5,10-methylene tetrahydrofolate]
inhibition of 5,10-methylene tetrahydrofolate dehydrogenase [1]: inhibited | inhibition of thymidylate synthase [2]: inhibited

inhibition of GAR formyl-transferase [3]: potent competitive inhibitor
Compound: Nc1nc2c(c(=O)[nH]1)NC(CN(C=O)c1ccc(C(=O)N[C@@H](CCC(=O)O)C(=O)O)cc1)CN2 (single isomer, unassigned) [non-natural diastereoisomer of 10-formyltetrahydrofolate, 10-formyltetrahydrofolate]

Compound: calcium 5-formyl-(6S) tetrahydrofolate [Ib]
effectiveness in restoring one-carbon metabolism [4]: effective in restoring one-carbon metabolism
